Values quoted from earlier work, collected in patent US20060106003A1, “Combination of a macrolide t-cell immunomodulator and a calciferol for the treatment of skin diseases or of inflammatory bowel disease” (priority 2003, published 2006).

Tested on: allogeneic kidney transplantation
Conditions: rat, oral administration; suppression of systemic immune response

C=CC[C@@H]1/C=C(\C)C[C@H](C)C[C@H](OC)[C@H]2O[C@@](O)(C(=O)C(=O)N3CCCC[C@H]3C(=O)O[C@H](/C(C)=C/[C@@H]3CC[C@@H](O)[C@H](OC)C3)[C@H](C)[C@@H](O)CC1=O)[C@H](C)C[C@@H]2OC [tacrolimus]
minimum effective dose (MED): 14 mg/kg
